Data published in US6852737B2 (Recordati Ireland Limited, priority 2001, dated 2005).
“And” between values parts separate entries of the source, which are not always exact repeats. Equal values may be shown once. “Also recorded” adds a separate entry of the source. Where a name gives a salt, the structure may show the parent alone. Marks after values point to notes of the source that are not given here.

Tests used:
[1] = Hygroscopicity (DVS analysis); type: physicochemical; conditions: 25° C.
Method: The hygroscopicity of both crystalline Forms (I) and (II) was measured with DVS analysis by means of a water absorption analyzer (SURFACE MEASUREMENT SYSTEM, Marion, Buckinghamshire, UK) according to the following working conditions: […]

[2] = Stability of crystalline forms; type: physicochemical; conditions: hydrochloride
[3] = Bioavailability of crystalline forms in dog; type: in vivo, Beagle dogs
Method: A study was carried out on six Beagle dogs to evaluate the bioavailability of crystalline Forms (I) and (II).
Blood samples were taken at given times and plasma concentrations of lercanidipine were determined with a stereoselective analytical method HPLC-MS/MS, according to the following working conditions;
Lercanidipine was extracted from dog plasma by means of a liquid-liquid extraction with a mixture of n-hexane and ethyl ether. The dry residue of the organic phase was taken up with a mixture of methanol and water and a liquid-phase chromatographic separation (LC) was carried out; the two enantiomers of lercanidipine were separated on a CHIROBIOTIC V column (Vancomycin) (particle size […], column size 150×4.6 mm (ASTEC, NJ, USA)) and were detected with a mass spectrometer (MS/MS) by using an electrospray technique.
The analytical method was validated in a concentration range between 0.1 and 20 ng/ml of plasma for both enantiomers. The method has shown to be specific with an accuracy of 15%. The average concentrations of lercanidipine in the tables represent the sum of both enantiomers.

[4] = Relative bioavailability in man; type: in vivo; conditions: for AUC0−t, geom. least square mean / Cmax, geom. least square mean / tmax, median / bioequivalence to Form I: 10 mg tablet; for AUC0−t, geom. least square mean / Cmax, geom. least square mean / tmax, median / time of maximum concentration (tmax) compared to the other crystalline form: single dose; for AUC0−t, geom. least square mean: 16 volunteers; for AUC0−t, geom. least square mean / Cmax, geom. least square mean / tmax, median / time of maximum concentration (tmax) compared to the other crystalline form / bioequivalence to Form I: hydrochloride
Method: Blood samples were taken at 15 points from time 0 to 24 h post-dosing and plasma concentrations of lercanidipine were determined with a stereoselective analytical method HPLC-MS/MS as described in Example 19a, as validated for man at the same concentration intervals.

[5] = oral administration; cited from earlier work
isolated rat aorta = conditions: drug removed from the environment of the aortic tissue for 6 hours; cited from earlier work
[6] = 0 h, Mean (dog 2 not included), oral 3 mg/kg
[7] = 0.5 h, Dog 1, oral 3 mg/kg, hydrochloride, 3 mg/kg
[8] = 0.5 h, Dog 3, oral 3 mg/kg, hydrochloride, 3 mg/kg
[9] = 0.5 h, Mean (dog 2 not included), oral 3 mg/kg, hydrochloride, 3 mg/kg
[10] = 1 h, Dog 1, oral 3 mg/kg, hydrochloride, 3 mg/kg
[11] = 1 h, Dog 3, oral 3 mg/kg, hydrochloride, 3 mg/kg
[12] = 1 h, Dog 4, oral 3 mg/kg, hydrochloride, 3 mg/kg
[13] = 1 h, Dog 5, oral 3 mg/kg, hydrochloride, 3 mg/kg
[14] = 1.5 h, Dog 4, oral 3 mg/kg, hydrochloride, 3 mg/kg
[15] = 1.5 h, Dog 6, oral 3 mg/kg, hydrochloride, 3 mg/kg
[16] = 6 h (last sampling time), Mean (dog 2 not included), oral 3 mg/kg, hydrochloride, 3 mg/kg
[17] = Dog 2, oral 3 mg/kg, hydrochloride, 3 mg/kg
[18] = Dog 3, oral 3 mg/kg, hydrochloride, 3 mg/kg
[19] = Dog 4, oral 3 mg/kg, hydrochloride, 3 mg/kg

## COC(=O)C1=C(C)NC(C)=C(C(=O)OC(C)(C)CN(C)CCC(c2ccccc2)c2ccccc2)C1c1cccc([N+](=O)[O-])c1 (single isomer, unassigned) [Form (I), lercanidipine hydrochloride]
[1]; 0% RH
  mass change: −0.3%
[1]; 95% RH
  mass change: +0.15%
[2]
  stability: good stability; also recorded: stable
[3]; 0 h, Dog 1, oral 3 mg/kg
  concentration in plasma of lercanidipine (S + R): 0.00 ng/mL
[3]; 0 h, Dog 2, oral 3 mg/kg
  concentration in plasma of lercanidipine (S + R): 0.00 ng/mL
[3]; 0 h, Dog 3, oral 3 mg/kg
  concentration in plasma of lercanidipine (S + R): 0.00 ng/mL
[3]; 0 h, Dog 4, oral 3 mg/kg
  concentration in plasma of lercanidipine (S + R): 0.00 ng/mL
[3]; 0 h, Dog 5, oral 3 mg/kg
  concentration in plasma of lercanidipine (S + R): 0.00 ng/mL
[3]; 0 h, Dog 6, oral 3 mg/kg
  concentration in plasma of lercanidipine (S + R): 0.00 ng/mL
[3]; [6]
  concentration in plasma of lercanidipine (S + R): 0.00 ng/mL
[3]; [7]
  concentration in plasma of lercanidipine (S + R): 0.1 ng/mL
[3]; 0.5 h, Dog 2, oral 3 mg/kg, hydrochloride, 3 mg/kg
  concentration in plasma of lercanidipine (S + R): 0.20 ng/mL
[3]; [8]
  concentration in plasma of lercanidipine (S + R): 0.00 ng/mL
[3]; 0.5 h, Dog 4, oral 3 mg/kg
  concentration in plasma of lercanidipine (S + R): 0.00 ng/mL
[3]; 0.5 h, Dog 5, oral 3 mg/kg
  concentration in plasma of lercanidipine (S + R): 0.00 ng/mL
[3]; 0.5 h, Dog 6, oral 3 mg/kg
  concentration in plasma of lercanidipine (S + R): 0.00 ng/mL
[3]; [9]
  concentration in plasma of lercanidipine (S + R): 0.00 ng/mL
[3]; [10]
  concentration in plasma of lercanidipine (S + R): 0.59 ng/mL
[3]; 1 h, Dog 2, oral 3 mg/kg, hydrochloride, 3 mg/kg
  concentration in plasma of lercanidipine (S + R): 0.29 ng/mL
[3]; [11]
  concentration in plasma of lercanidipine (S + R): 0.00 ng/mL
[3]; [12]
  concentration in plasma of lercanidipine (S + R): 0.00 ng/mL
[3]; [13]
  concentration in plasma of lercanidipine (S + R): 0.00 ng/mL
[3]; 1 h, Dog 6, oral 3 mg/kg
  concentration in plasma of lercanidipine (S + R): 0.00 ng/mL
[3]; 1 h, Mean (dog 2 not included), oral 3 mg/kg, hydrochloride, 3 mg/kg
  concentration in plasma of lercanidipine (S + R): 0.12 ng/mL
[3]; 1.5 h, Dog 3, oral 3 mg/kg, hydrochloride, 3 mg/kg
  concentration in plasma of lercanidipine (S + R): 0.32 ng/mL
[3]; [14]
  concentration in plasma of lercanidipine (S + R): 0.00 ng/mL
[3]; [15]
  concentration in plasma of lercanidipine (S + R): 0.00 ng/mL
[3]; 1.5 h, Mean (dog 2 not included), oral 3 mg/kg, hydrochloride, 3 mg/kg
  concentration in plasma of lercanidipine (S + R): 0.70 ng/mL
[3]; 2 h, Dog 3, oral 3 mg/kg, hydrochloride, 3 mg/kg
  concentration in plasma of lercanidipine (S + R): 0.94 ng/mL
[3]; 2 h, Dog 4, oral 3 mg/kg, hydrochloride, 3 mg/kg
  concentration in plasma of lercanidipine (S + R): 0.35 ng/mL
[3]; 2 h, Dog 6, oral 3 mg/kg, hydrochloride, 3 mg/kg
  concentration in plasma of lercanidipine (S + R): 0.28 ng/mL
[3]; 3 h, Dog 3, oral 3 mg/kg, hydrochloride, 3 mg/kg
  concentration in plasma of lercanidipine (S + R): 0.92 ng/mL
[3]; [16]
  concentration in plasma of lercanidipine (S + R): 8.5 ± 6.5 ng/mL and 8.50 ng/mL
[3]; 6 h, Dog 1, oral 3 mg/kg, hydrochloride, 3 mg/kg
  concentration in plasma of lercanidipine (S + R): 0.80 ng/mL
[3]; 6 h, Dog 5, oral 3 mg/kg, hydrochloride, 3 mg/kg
  concentration in plasma of lercanidipine (S + R): 9.73 ng/mL
[3]; 6 h, Dog 6, oral 3 mg/kg, hydrochloride, 3 mg/kg
  concentration in plasma of lercanidipine (S + R): 17.83 ng/mL
[3]; Dog 1, oral 3 mg/kg, hydrochloride, 3 mg/kg
  Tmax: 2.00 h
[3]; [17]
  Tmax: 4.00 h
[3]; [18]
  Tmax: 6.00 h
[3]; [19]
  Tmax: 3.00 h
[3]; Dog 5, oral 3 mg/kg, hydrochloride, 3 mg/kg
  Tmax: 3.00 h
[3]; Mean (n = 5, dog 2 not included), oral 3 mg/kg, hydrochloride, 3 mg/kg
  Tmax: 4.00 h
[4]
  AUC0−t, geom. least square mean: 8.82 ng·h/mL
  Cmax, geom. least square mean: 3.18 ng/mL
  tmax, median: 1.50* h
  time of maximum concentration (tmax) compared to the other crystalline form: shorter time

## COC(=O)C1=C(C)NC(C)=C(C(=O)OC(C)(C)CN(C)CCC(c2ccccc2)c2ccccc2)C1c1cccc([N+](=O)[O-])c1 (single isomer, unassigned) [Form (II), lercanidipine hydrochloride]
[1]; whole RH range tested (0-95%)
  mass variation: < 0.05%
[2]
  stability: good stability; also recorded: stable
[3]; 0 h, Dog 1, oral 3 mg/kg
  concentration in plasma of lercanidipine (S + R): 0.00 ng/mL
[3]; 0 h, Dog 2, oral 3 mg/kg
  concentration in plasma of lercanidipine (S + R): 0.00 ng/mL
[3]; 0 h, Dog 3, oral 3 mg/kg
  concentration in plasma of lercanidipine (S + R): 0.00 ng/mL
[3]; 0 h, Dog 4, oral 3 mg/kg
  concentration in plasma of lercanidipine (S + R): 0.00 ng/mL
[3]; 0 h, Dog 5, oral 3 mg/kg
  concentration in plasma of lercanidipine (S + R): 0.00 ng/mL
[3]; 0 h, Dog 6, oral 3 mg/kg
  concentration in plasma of lercanidipine (S + R): 0.00 ng/mL
[3]; [6]
  concentration in plasma of lercanidipine (S + R): 0.00 ng/mL
[3]; [7]
  concentration in plasma of lercanidipine (S + R): 0.00 ng/mL
[3]; [8]
  concentration in plasma of lercanidipine (S + R): 6.99 ng/mL
[3]; 0.5 h, Dog 4, oral 3 mg/kg
  concentration in plasma of lercanidipine (S + R): 0.00 ng/mL
[3]; 0.5 h, Dog 5, oral 3 mg/kg
  concentration in plasma of lercanidipine (S + R): 0.00 ng/mL
[3]; 0.5 h, Dog 6, oral 3 mg/kg
  concentration in plasma of lercanidipine (S + R): 0.00 ng/mL
[3]; [9]
  concentration in plasma of lercanidipine (S + R): 1.40 ng/mL
[3]; [10]
  concentration in plasma of lercanidipine (S + R): 0.00 ng/mL
[3]; [11]
  concentration in plasma of lercanidipine (S + R): 16.61 ng/mL
[3]; [12]
  concentration in plasma of lercanidipine (S + R): 5.50 ng/mL
[3]; [13]
  concentration in plasma of lercanidipine (S + R): 3.28 ng/mL
[3]; 1 h, Dog 6, oral 3 mg/kg
  concentration in plasma of lercanidipine (S + R): 0.00 ng/mL
[3]; 1.5 h, Dog 1, oral 3 mg/kg, hydrochloride, 3 mg/kg
  concentration in plasma of lercanidipine (S + R): 0.23 ng/mL
[3]; [14]
  concentration in plasma of lercanidipine (S + R): 35.43 ng/mL
[3]; [15]
  concentration in plasma of lercanidipine (S + R): 3.49 ng/mL
[3]; 2 h, Dog 1, oral 3 mg/kg, hydrochloride, 3 mg/kg
  concentration in plasma of lercanidipine (S + R): 7.63 ng/mL
[3]; 3 h, Dog 4, oral 3 mg/kg, hydrochloride, 3 mg/kg
  concentration in plasma of lercanidipine (S + R): 28.36 ng/mL
[3]; 3 h, Dog 5, oral 3 mg/kg, hydrochloride, 3 mg/kg
  concentration in plasma of lercanidipine (S + R): 40.57 ng/mL
[3]; 3 h, Dog 6, oral 3 mg/kg, hydrochloride, 3 mg/kg
  concentration in plasma of lercanidipine (S + R): 14.10 ng/mL
[3]; 4 h, Dog 3, oral 3 mg/kg, hydrochloride, 3 mg/kg
  concentration in plasma of lercanidipine (S + R): 14.10 ng/mL
[3]; 4 h, Dog 5, oral 3 mg/kg, hydrochloride, 3 mg/kg
  concentration in plasma of lercanidipine (S + R): 23.66 ng/mL
[3]; [16]
  concentration in plasma of lercanidipine (S + R): 10.9 ± 6.8 ng/mL
[3]; 6 h, Dog 2, oral 3 mg/kg, hydrochloride, 3 mg/kg
  concentration in plasma of lercanidipine (S + R): 4.50 ng/mL
[3]; [17]
  Tmax: 1.50 h
[3]; [18]
  Cmax: 19.78 ng/mL
[3]; [19]
  Cmax: 52.64 ng/mL
[3]; Dog 6, oral 3 mg/kg, hydrochloride, 3 mg/kg
  Cmax: 18.56 ng/mL
[4]
  bioequivalence to Form I: not bioequivalent
  AUC0−t, geom. least square mean: 10.36 ng·h/mL
  Cmax, geom. least square mean: 3.22 ng/mL
  tmax, median: 2.50* h
  time of maximum concentration (tmax) compared to the other crystalline form: delayed
[4]; listed as Form II
  bioequivalence to Form I: non equivalent
[4]; T = Form (II) tablet, R = Form (I) tablet (Zanedip 10 mg)
  tmax Point Estimate (T/R), median difference: 0.75** h

## COC(=O)C1=C(C)NC(C)=C(C(=O)OC(C)(C)CN(C)CCC(c2ccccc2)c2ccccc2)C1c1cccc([N+](=O)[O-])c1 (stereo not drawn) [Lercanidipine, methyl 1,1,N-trimethyl-N-(3,3-diphenylpropyl)-2-aminoethyl 1,4-dihydro-2,6-dimethyl-4-(3-nitrophenyl)pyridine-3,5-dicarboxylate]
[5]
  time of peak plasma levels following dosing: 2 to 3 h
Isolated rat aorta
  response to high K+ after the drug has been removed: attenuated
